Laboratory results: patent US20240309014A1, “MACROCYCLIC COMPOUNDS AND USES THEREOF” (President and Fellows of Harvard College, priority 2017, published 2024)

Test system: α-SMA expression in BJ normal human fibroblasts
Test: α-SMA expression in BJ fibroblasts co-cultivated with FaDu cells
Format: cell-based
Conditions: BJ cells co-cultured with FaDu for three days
Description: FIG. 19A. BJ cells (normal human […] fibroblasts) were co-cultured with FaDu cells for three days in the absence (vehicle) or presence of A83-01, a potent selective TGF-β-R inhibitor, and the expression of α-SMA was analysed by immunofluorescence staining (red color). Samples were also stained with anti-pan-human cytokeratin (green color) for cancer cell staining and DAPI (blue color) for nuclear staining. FIGS. 19B-19E BJ cells were treated with Compound (1) (0.15 nmol/L in immunofluorescence staining data and indicated concentrations in western blot analysis data) and TGF-β for 2 days. FIGS. 19B-19E. Samples were stained with the indicated antibody (red color) and DAPI (blue color) for nuclear staining. FIG. 19E Western blot images and quantification of the images. […] FIGS. 19G and 19E BJ cells were pretreated with defactinib (1 μmol/L) and TGF-β for 2 days. The lens magnification used was x4 (FIGS. 19A, 19B, 19C, 19G, and 19H) or x40 (FIGS. 19D and 19E).
The expression of α-SMA was induced in BJ normal human fibroblasts upon co-cultivation with FaDu cells, and the expression was attenuated by treatment with A83-01, a potent selective inhibitor of the TGF-β-receptor (FIG. 19A).

SMILES: Cc1cccc(-c2nn(C(=S)Nc3ccccc3)cc2-c2ccnc3ccccc23)n1 [Compound A83-01]
- expression of α-SMA induced upon co-cultivation with FaDu cells: attenuated
